This note sets out measurements from PubChem BioAssay AID179 (DTP/NCI, 2004).

The test system of the test is CEM cells HIV-1 protection, formazan growth assay. The test can be described thus: NCI AIDS Antiviral Assay. Conditions: for pIC50: measured here: growth of uninfected CEM cells. Put shortly: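 Screen of anti-HIV-1 activity in human CEM cells using a formazan-based growth measurement at five drug concentrations. Hits with 50% or greater protection were repeated, and confirmation required reproducible complete protection.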

pEC50, pIC50: −log10 of the molar value. The source made the active and inactive calls.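 Rule for the calls: active = compounds giving half or more protection of infected cells from virus-caused growth loss, again on retest; inactive = the rest.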

Consider `CCN(CC)CCOC(=O)c1cc2ccccc2n1-c1ccccc1`, for which the pEC50 is less than 3.70 and the pIC50 is 4.10. In the same order, the values of `CC(C)(CN1CCCCC1)C(=O)/C=C/c1ccccc1` are less than 3.85 and 4.16. Turning to `C1OC1[C@@H]1CC[C@@H]([C@@H]2CC[C@@H]([C@H]3CO3)O2)O1` (some centres undefined), the outcome was inactive and the negative logarithm of the IC50 (pIC50) was 4.40. For `Cc1c(CSCC(=O)O)c(O)c2c(=O)c3c(O)c(CSCC(=O)O)c(O)c4c5c(O)c(CSCC(=O)O)c(O)c6c(=O)c7c(O)c(CSCC(=O)O)c(C)c8c1c2c(c34)c(c78)c65`, the pEC50 is less than 4.57 and the pIC50 was 5.95.

For the compound `Cc1c(C(=N)C(C#N)C#N)c(=N)oc2c1ccc1ccccc12`, the pEC50 was less than 3.70 and the pIC50 was 4.57. For `CCNC(=O)Nc1ccc(Cl)cn1`, in that order: less than 3.70 and 3.88. With `CCOC(=O)C1=C(OS(=O)(=O)C(F)(F)F)CCCC1`, the pEC50 was less than 3.70 and the pIC50 was less than 3.70. Regarding `C=CC[P+](CC=C)(c1ccccc1)c1ccccc1`, the pEC50 was less than 3.70 and the negative logarithm of the IC50 (pIC50) was 5.72. On to `COc1cccc(/C=N/[N-]C(N)=O)c1[O-].[Ni+2].[OH3+]`, for which the pEC50 was less than 3.78 and the negative logarithm of the IC50 (pIC50) was 7.28. In the same order, the values of `NC(=O)NC12CC3CC(CC(F)(C3)C1)C2` are less than 2.93 and less than 2.93. For `Cc1occc1C(=S)Nc1ccc(Cl)c(C(=O)OC(C(C)C)C(C)C)c1`, in that order: 7.04 and 4.88. On to `COc1cc(-c2cc(CCC(=O)Nc3ccccc3[N+](=O)[O-])n(-c3ccc([N+](=O)[O-])cc3[N+](=O)[O-])n2)ccc1O`, for which the pEC50 was less than 4.32 and the pIC50 is less than 4.32. With `COc1ccc(/C=N/N=C(\[O-])c2ccncc2)cc1F.COc1ccc(/C=N\N=C(/[O-])c2ccncc2)cc1F.[Cu+2]`, the pEC50 is less than 4.00 and the negative-log IC50 (pIC50) was 4.73. In the same order, the values of `CCC[CH2][Sn]([Cl])([CH2]CCC)[S]C(=S)NCCNC(=S)[S][Sn]([Cl])([CH2]CCC)[CH2]CCC` are less than 5.70 and 6.99. For `COC(=O)c1cccc(C)c1C1CN=NC12Cc1cc(C)cc(C)c1C2=O` (centres undefined), in that order: less than 3.70 and 4.91. For `O=C(O)CCc1ccc(O)c(O)c1`, the outcome was inactive.

For the compound `CCCN(CCC)C(=O)c1nc(N)nc(-c2ccc(OC)cc2)c1-c1ccc(OC)cc1`, the pEC50 is less than 4.78 and the pIC50 is less than 4.78. With `O=c1[nH]nc(-c2ccc([N+](=O)[O-])cc2)[nH]1`, the pEC50 is less than 3.70 and the pIC50 was less than 3.70. In the case of `COC(=O)C(C)S(=O)(=O)O` (centres undefined), the pEC50 is less than 3.70 and the pIC50 was less than 3.70. As to `C/C(=C\CNc1nc(Cl)nc2nc[nH]c12)CO`, the pEC50 was less than 3.70 and the pIC50 was 3.83. In the same order, the values of `CC1(C)N=C(/C(C#N)=[N+](/[O-])C(=O)c2ccccc2)C(C)(C)N1O` are less than 3.70 and less than 3.70. For `Cc1ccc(N=Nc2c(C)c(C#N)c(=S)n(C3OC(CO)C(O)C(O)C3O)c2C)cc1` (centres undefined), in that order: less than 3.70 and 4.72. `CC1C2CC(C(S(=O)(=O)N3CCOCC3)/C2=N\O)C1(C)C` (centres undefined): the pEC50 was less than 3.70 and the negative logarithm of the IC50 (pIC50) is 3.71. For `CN(C)c1nc(NC23CC4CC(CC(C4)C2)C3)nc(N(C)C)n1`, in that order: less than 3.70 and 5.30.

For the compound `COc1cc2c(c(O)c1OC)C(O)C1CCC(=O)N1C2c1cccc2ccccc12` (centres undefined), the pEC50 was less than 3.70 and the pIC50 is 4.28. With `COC(=O)c1ncn(C2CCCCC2)c1N`, the pEC50 was less than 3.70 and the pIC50 is less than 3.70.

For the compound `O=C1C=C(c2ccccc2)C2(c3ccccc3)C1C1C(c3ccccc3)=C(c3ccccc3)C2C12SCCS2` (centres undefined), the pEC50 was less than 3.70 and the pIC50 is 5.47. In the same order, the values of `c1ccc2c(c1)nc1nc3c(cn12)CCCC3` are less than 3.82 and less than 3.82.

For `COc1ccc(/C(C#N)=C/c2cccc([N+](=O)[O-])c2)cc1`, the pEC50 is less than 3.70 and the pIC50 is less than 3.70.

Turning to `O=CN/C=C/c1ccccc1O`, the pEC50 was less than 3.70 and the pIC50 is less than 3.70. With `CCC1Oc2c(CC=C(C)C)c(OC(C)=O)c(C(OC(C)=O)C(C)CC)c3oc(=O)cc1c23` (centres undefined), the pEC50 was less than 3.70 and the negative logarithm of the IC50 (pIC50) was 4.02.

Consider `COc1cc(C(CC(C)=O)c2cc3c(cc2OC(C)=O)OCO3)cc(OC)c1OC` (centres undefined) (tested in a mixture with another compound), for which the pEC50 was less than 3.98 and the pIC50 is 6.87. For `NC(N)=NNC(=O)CCn1[nH]c(=O)c(Cl)c(Cl)c1=O`, in that order: less than 3.09 and less than 3.09. For `CC(C)OP(=O)(OC(C)C)/C(N)=N/Nc1ccc([N+](=O)[O-])cc1`, in that order: less than 3.71 and less than 4.00. In the same order, the values of `CCC1OC2C(CC=C(C)C)=C3OC(C)(O)C(C)(CC)C(OC(=O)c4ccccc4)C3=C3OC(=O)C=C1C32` (centres undefined) are less than 3.70 and 4.73. Regarding `NC(N)=NCCCC(NCc1c2ccccc2[n+]([O-])c2ccccc12)C(=O)O` (centres undefined), the result was inactive. Consider `Cc1c2ccccc2nc(CSCCO)[n+]1[O-]`, for which the pEC50 is less than 3.70 and the negative-log IC50 (pIC50) was less than 3.70. As to `Cc1cc([N+](=O)[O-])ccc1Sc1c2ccccc2nc2cc(Cl)ccc12`, the pEC50 was less than 4.72 and the pIC50 was less than 4.72. `CC(C)(C)C1CCC2c3c([nH]c4ccccc34)C3C(=O)N(c4ccc5c(c4)C(=O)c4ccccc4C5=O)C(=O)C3C2C1` (centres undefined): the pEC50 was less than 3.70 and the negative logarithm of the IC50 (pIC50) is less than 3.70. As for `CCCCN(CCCC)C1=Nc2ccccc2-n2c(nnc2C(=O)OCC)C1`, the pEC50 was less than 3.70 and the pIC50 is 4.38. In the same order, the values of `CCn1c(=O)c2c3ccc(OC(C)=O)cc3[nH]c2c2ccc(OC(C)=O)cc21` are less than 3.70 and 4.57.

Regarding `O=C(N/N=C(\c1nc2ccc(Cl)cc2[nH]c1=O)C(O)c1ccccc1Cl)c1ccncc1` (centres undefined), the pEC50 is less than 3.27 and the pIC50 was less than 3.27. The compound `NS(=O)(=O)c1cc[c]([Sb](=[O])([OH])[OH])cc1` showed a negative logarithm of the EC50 (pEC50) of less than 3.70 and a pIC50 of less than 3.70. With `O=C1CCC(=O)N1Sc1ccccc1`, the outcome was inactive. For the compound `C/C(C=C(C#N)C#N)=C\c1cccc(F)c1`, the pEC50 was less than 3.91 and the negative-log IC50 (pIC50) was 4.85. As to `CCOC(=O)c1cc2c3c(c(O)c(OC)c2s1)N(C(=O)c1cc2c4c(c(O)c(OC)c2s1)N(C(C)=O)CC4)CC3`, the outcome was inactive. On to `CC(C)C1=CC2=CCC3C(C)(COC(=O)COc4ccccc4)CCCC3(C)C2CC1` (centres undefined), for which the pEC50 is less than 3.70 and the negative-log IC50 (pIC50) is 4.33. For `C=CCNc1nc2c(N)ncnc2s1`, in that order: less than 3.70 and less than 3.70. In the same order, the values of `CC(=O)Oc1ccc2cc(-c3ccc(OC(C)=O)c(OC(C)=O)c3)c(=O)oc2c1` are less than 3.70 and 4.19.

`COc1ccc(-c2cc(=O)c3ccc(O)cc3o2)cc1`: the pEC50 was less than 4.08 and the negative logarithm of the IC50 (pIC50) was less than 4.08.

In the case of `COc1cc(/C=C/C(=O)OC[C@]23O[C@H]2[C@@H](OC2OC(C)C(O)C(O)C2O)C2C=CO[C@@H](OC4OC(CO)C(O)C(O)C4O)C23)ccc1O` (some centres undefined), the pEC50 was less than 3.70 and the pIC50 was less than 3.70. Take `CCCCN=C1OCc2[nH][nH]c(=O)c21`: the pEC50 is less than 2.89 and the pIC50 is less than 2.89. Regarding `COc1ccc(C2C(Cl)C(=O)N2n2cnc3ccccc3c2=O)cc1OC` (centres undefined), the pEC50 is less than 3.47 and the negative logarithm of the IC50 (pIC50) is 4.33. For `C=C(C)Cn1c(=O)n(CC(=C)C)c(=O)n(CC(=C)C)c1=O`, in that order: less than 3.70 and 4.09. In the same order, the values of `CC1=C(O)C(=O)C(C2=C(O)C(=O)C(C)=C(O)C2=O)=C(O)C1=O` are less than 3.58 and 3.84. In the same order, the values of `CC1=C(c2ccc(C)cc2)NC(=S)C(C)C(c2ccc(C)cc2)=N1` (centres undefined) are less than 3.70 and 4.01.

As for `CCN(CC)C(=S)[S][Bi]([S]C(=S)N(CC)CC)[S]C(=S)N(CC)CC`, the pEC50 is less than 5.10 and the pIC50 was 6.96. In the same order, the values of `CC(C)(C)C1=CC(=Nc2ccc([N+](=O)[O-])cc2[N+](=O)[O-])C=C(C(C)(C)C)C1=O` are less than 4.87 and less than 4.87. For `Cc1cc(C)nc(NS(=O)(=O)c2ccc(Nc3c4ccccc4nc4c(C(=O)NCCO)cccc34)cc2)n1`, in that order: less than 3.70 and 5.11. Take `CC(C)(C)[Si](C)(C)OC1CCOC1(O)c1ccccn1` (centres undefined): the pEC50 is less than 3.70 and the negative logarithm of the IC50 (pIC50) was 4.18.

As for `CSCCC(N)P(C)(=O)O` (centres undefined), the pEC50 is less than 3.70 and the pIC50 was less than 3.70. `C/C(=C1/N=C(c2cc([N+](=O)[O-])ccc2Cl)N(C2=CC=C(Cl)CC2)C1=O)c1cc2ccccc2oc1=O`: the pEC50 is less than 4.72 and the pIC50 was less than 4.72.

In the case of `COc1ccc(C(C)=C(C#N)C#N)cc1`, the pEC50 is less than 3.74 and the pIC50 is less than 3.74. As to `Cc1c(NC(=S)Nc2ccc(Cl)cc2)c(=O)n(-c2ccccc2)n1C`, the pEC50 is less than 3.70 and the negative logarithm of the IC50 (pIC50) is less than 3.70. Take `Fc1cccc(C2SCc3nc4ncccc4n32)c1` (centres undefined): the pEC50 was less than 3.88 and the negative-log IC50 (pIC50) is less than 3.88.

In the case of `Oc1ccccc1C=Nc1ccccc1N=Cc1ccccc1O`, the pEC50 is less than 5.34 and the negative logarithm of the IC50 (pIC50) is less than 5.34. `COc1ccc(S(=O)(=O)O)cc1-n1nc(C(=O)Nc2ccccc2)n[n+]1-c1cc(S(=O)(=O)[O-])ccc1OC`: the pEC50 was less than 3.70 and the negative-log IC50 (pIC50) is less than 3.70. Turning to `COc1ccc(CNc2nc3ccccc3nc2C(=O)O)cc1OC`, the pEC50 is less than 3.70 and the pIC50 is 4.02.

For the compound `COc1cc(N=Nc2ccccc2)cc(/C=N/NC(=O)c2cccnc2)c1O`, the pEC50 is less than 3.18 and the pIC50 is 4.22.

In general, pEC50 refers to −log10 of the EC50, conventionally taken in molar units. What is called pIC50 is the negative decadic logarithm of the IC50, by convention in mol/L.
